Values quoted from earlier work, collected in patent US20100323978A1, “Non-aqueous oil delivery system for ophthalmic drugs” (priority 2009, published 2010).
Where a name gives a salt, the structure may show the parent alone. Read-outs that look alike come from different tables or passages of the source.

Assays:
[1] = warning label
[2] = tested on: rabbits; details: 10 micro Liters eye drop
[3] = tested on: rabbit eyes; details: aqueous suspension injected into the eyes for three days
[4] = 0.15 Molar suspended in sesame seed oil

## CN(C)CCOC(=O)C(c1ccccc1)C1(O)CCCC1 (centres unmarked) [Cyclopentolate HCl]
[1]
  stability of powder: not stable at room temperature

## CNC[C@H](O)c1cccc(O)c1 [phenylephrine HCl]
[2]; [4]
  mydriasis in the rabbit: ineffective
[2]; 0.5 Molar suspended in sesame seed oil
  mydriasis in the rabbit: slightly effective

## CNC[C@H](O)c1cccc(O)c1 [phenylephrine free base]
[2]; [4]
  mydriasis in the rabbit: produced mydriasis

## alpha-hydroxy-testosterone
[3]
  intra-ocular pressure: decreased
